Our source for the IC50 and viability values is ChEMBL document CHEMBL3751757, “Three-component, one-pot synthesis of benzo[6,7]cyclohepta[1,2-b]pyridine derivatives under catalyst free conditions and evaluation of their anti-inflammatory activity” (Bioorg Med Chem Lett, 2016).

The test system of assay [1] is THP-1. Description: Anti-inflammatory activity in human THP1 cells assessed as inhibition of PMA-induced IL-1beta production after 48 hrs by ELISA. In kind it is functional, cell-based. The conditions noted are these: THP-1, 48 h. For orientation: ELISA stands for enzyme-linked immunosorbent assay.
In assay [2] the test system is THP-1. The assay can be described thus: Anti-inflammatory activity in human THP1 cells assessed as inhibition of PMA-induced MCP-1 production after 48 hrs by ELISA. The conditions noted are these: THP-1, 48 h. In kind it is functional, cell-based.
Assay [3] in a line: Cytotoxicity against human THP1 cells assessed as cell viability at 20 uM after 48 hrs by trypan blue dye exclusion assay. In kind it is functional. To be noted: THP-1, 48 h, read-out: Activity.

SMILES strings stand for the structures.

Turning to `CC(=O)c1cc2c(nc1C)-c1ccccc1CCC2`, the IC50 in assay [1] and in assay [2] was more than 20 µM in each case. Further, the viability at 20 µM in assay [3] was 92.3%.

In the case of `CCOC(=O)c1cc2c(nc1-c1ccccc1)-c1ccccc1CCC2`, the concentration for half-maximal inhibition (IC50) in assay [1] and in assay [2] was more than 20 µM in each case. Besides, the viability at 20 µM in assay [3] turned out to be 103%.

On to `O=C1CCCc2nc3c(cc21)CCCc1ccccc1-3`, for which the 50% inhibitory concentration (IC50) in assay [1] and in assay [2] was more than 20 µM in each case. In assay [3], the viability at 20 µM was determined as 96.8%.

For `CC1(C)CC(=O)c2cc3c(nc2C1)-c1ccccc1CCC3`, the half-inhibitory concentration (IC50) is more than 20 µM in assay [1] and 5.6 µM in assay [2]. Further, in assay [3], the viability at 20 µM was 98.2%.

Turning to `CCOC(=O)c1cc2c(nc1C)-c1cc(C)c(C)cc1CCC2`, the values for the IC50 in assay [1] and in assay [2] were 6.5 µM and 8.5 µM, respectively. Moreover, in assay [3], the viability at 20 µM came to 95.9%.

Turning to `CN1C(C(=O)Nc2ccccn2)=C(O)c2ccccc2S1(=O)=O` [PIROXICAM], the IC50 in assay [1] is 18.1 µM. In addition, the viability at 20 µM in assay [3] stood at 98.1%.

For the compound `CC(=O)c1cc2c(nc1C)-c1cc(C)c(C)cc1CCC2`, the half-inhibitory concentration (IC50) in assay [1] was more than 20 µM; in assay [2], 14.8 µM. Besides, the viability at 20 µM in assay [3] was 97.6%.

Take `Cc1cc2c(cc1C)-c1nc3c(cc1CCC2)C(=O)CC(C)(C)C3`: the concentration for half-maximal inhibition (IC50) in assay [1] and in assay [2] was more than 20 µM throughout. Besides, in assay [3], the viability at 20 µM was found to be 105%.

Take `Cc1cc2c(cc1C)-c1nc3c(cc1CCC2)C(=O)CCC3`: the half-maximal inhibitory concentration (IC50) in assay [1] and in assay [2] was more than 20 µM each time. For the same compound, the viability at 20 µM in assay [3] came out at 97.1%.

Take `CCOC(=O)c1cc2c(nc1-c1ccccc1)-c1cc(C)c(C)cc1CCC2`: the IC50 in assay [1] came out at 18.2 µM; in assay [2], 8.5 µM. For the same compound, the viability at 20 µM in assay [3] was 97.6%.

Consider `COC(=O)c1cc2c(nc1C)-c1cc(C)c(C)cc1CCC2`, for which the concentration for half-maximal inhibition (IC50) was 8.6 µM in assay [1] and 16 µM in assay [2]. Moreover, the viability at 20 µM in assay [3] stood at 98.3%.

Turning to `COC(=O)c1cc2c(nc1C)-c1ccccc1CCC2`, the IC50 in assay [1] is 8.2 µM; in assay [2], more than 20 µM. Besides, the viability at 20 µM in assay [3] worked out at 97.2%.

As for `Cc1cc2c(cc1C)-c1nc(-c3ccccc3)c(C(=O)c3ccccc3)cc1CCC2`, the half-maximal inhibitory concentration (IC50) in assay [1] and in assay [2] was more than 20 µM in each case. Moreover, in assay [3], the viability at 20 µM stood at 101%.

`CCOC(=O)c1cc2c(nc1C)-c1ccccc1CCC2`: the 50% inhibitory concentration (IC50) was 6.9 µM in assay [1] and more than 20 µM in assay [2]. In assay [3], the viability at 20 µM worked out at 99.2%.

For `O=C(c1ccccc1)c1cc2c(nc1-c1ccccc1)-c1ccccc1CCC2`, the IC50 in assay [1] is 17.5 µM; in assay [2], more than 20 µM. Moreover, the viability at 20 µM in assay [3] came to 99.4%.

As usually defined, the IC50 is the concentration needed to halve the response being measured.
